In ChEMBL document CHEMBL1201862, “PubChem BioAssay data set” (2004):
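Each compound was tested at five concentrations against cells in 96-well plates for 48 hours. GI50 marks 50% less growth.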 Active and inactive are the calls of the source. Cut-off read from the data, not from the text of the source: active = GI50 up to about 1.1 µM and inactive = higher.

Key:
Test in all cases: NCI tumour cell line growth inhibition, 48 h
[1] = system: 786-0
[2] = system: ACHN
[3] = system: DU-145
[4] = system: HCC 2998
[5] = system: HCT-15
[6] = system: HL-60
[7] = system: LOX IMVI
[8] = system: M14
[9] = system: MDA-MB-231
[10] = system: MDA-MB-435
[11] = system: NCI-H23
[12] = system: NCI-H522
[13] = system: SF-268
[14] = system: SK-MEL-28
[15] = system: SK-MEL-2
[16] = system: SNB-19
[17] = system: TK-10
[18] = system: UACC-257
[19] = system: SF-539
[20] = system: SR

SMILES	GI50 [1]	GI50 [2]	GI50 [3]	GI50 [4]	GI50 [5]	GI50 [6]	GI50 [7]	GI50 [8]	GI50 [9]	GI50 [10]	GI50 [11]	GI50 [12]	GI50 [13]	GI50 [14]	GI50 [15]	GI50 [16]	GI50 [17]	GI50 [18]	GI50 [19]	GI50 [20]
O=c1[nH]c2c(C(F)(F)F)c(Cl)c(-c3ccccc3)nc2o1	24.4 µM (inactive)	65.5 µM (inactive)	38.1 µM (inactive)	25.5 µM (inactive)	22.1 µM	1.41 µM (inactive)	27.1 µM (inactive)	21.5 µM (inactive)	25.1 µM (inactive)	28.3 µM (inactive)	15.3 µM (inactive)	32.1 µM (inactive)	54.7 µM (inactive)	22.8 µM (inactive)	18.5 µM (inactive)	25.5 µM (inactive)	31.2 µM (inactive)	14.1 µM (inactive)		
CC(=O)NNc1nc(C)c(C(/C=C/c2ccc3c(c2)OCO3)=N/NC(=O)c2ccncc2)s1	> 100 µM (inactive)	> 100 µM (inactive)		> 100 µM (inactive)	> 100 µM	> 100 µM (inactive)	> 100 µM (inactive)	> 100 µM (inactive)	> 100 µM (inactive)	> 100 µM (inactive)	> 100 µM (inactive)	> 100 µM (inactive)	> 100 µM (inactive)	> 100 µM (inactive)	> 100 µM (inactive)	> 100 µM (inactive)	> 100 µM (inactive)	> 100 µM (inactive)	> 100 µM (inactive)	> 100 µM (inactive)
CCOC(=O)c1nc2ccccc2nc1Oc1ccc(C#N)cc1	> 100 µM (inactive)	> 100 µM (inactive)	> 100 µM (inactive)		> 100 µM	> 100 µM (inactive)	> 100 µM (inactive)	> 100 µM (inactive)	> 10 µM (inactive)	> 100 µM (inactive)			> 100 µM (inactive)	> 100 µM (inactive)	> 100 µM (inactive)	> 100 µM (inactive)	> 100 µM (inactive)	> 100 µM (inactive)	> 100 µM (inactive)	
Cn1c(=O)n2n(c1=O)C(S(=O)(=O)c1ccccc1)C2 (stereo not drawn)	> 100 µM (inactive)	> 100 µM (inactive)	> 100 µM (inactive)	> 100 µM (inactive)	> 100 µM		> 100 µM (inactive)	> 100 µM (inactive)	> 100 µM (inactive)	> 100 µM (inactive)	> 100 µM (inactive)	> 100 µM (inactive)	> 100 µM (inactive)	> 100 µM (inactive)	> 100 µM (inactive)	> 100 µM (inactive)	> 100 µM (inactive)	> 100 µM (inactive)	> 100 µM (inactive)	
CC(C)(C)N1C(=O)[N-]/[N+](=C(/C(c2ccccc2)=[N+]2/[N-]C(=O)N(C(C)(C)C)C2=O)c2ccccc2)C1=O	> 100 µM (inactive)	> 100 µM (inactive)	> 100 µM (inactive)	> 100 µM (inactive)	> 100 µM		> 100 µM (inactive)	> 100 µM (inactive)	> 100 µM (inactive)	> 100 µM (inactive)	> 100 µM (inactive)		> 100 µM (inactive)	> 100 µM (inactive)	> 100 µM (inactive)	> 100 µM (inactive)	> 100 µM (inactive)	> 100 µM (inactive)	> 100 µM (inactive)	
CN(C)CCCNCc1cccc2ccccc12	> 100 µM (inactive)	> 100 µM (inactive)	> 100 µM (inactive)		> 100 µM	> 100 µM (inactive)	> 100 µM (inactive)	66.5 µM (inactive)	> 100 µM (inactive)	> 100 µM (inactive)	> 100 µM (inactive)		> 100 µM (inactive)	> 100 µM (inactive)	> 100 µM (inactive)	> 100 µM (inactive)	> 100 µM (inactive)	> 100 µM (inactive)	> 100 µM (inactive)	25.6 µM (inactive)
CC(C)N(c1cc2c(cc1F)c(=O)c(C(=O)O)cn2-c1ccc(N2CCN(C)CC2)cn1)C(C)C	> 100 µM (inactive)		> 100 µM (inactive)		> 100 µM	> 100 µM (inactive)	> 100 µM (inactive)	> 100 µM (inactive)	> 100 µM (inactive)	> 100 µM (inactive)	> 100 µM (inactive)		> 100 µM (inactive)	> 100 µM (inactive)		> 100 µM (inactive)	> 100 µM (inactive)	> 100 µM (inactive)	> 100 µM (inactive)	> 100 µM (inactive)
CCc1cc2c(c3c1CCCC3=O)CC1(Cc3ccc(C(=O)OC)cc3C1)C2 (stereo not drawn)	84.5 µM (inactive)	25.6 µM (inactive)	> 100 µM (inactive)	93.1 µM (inactive)	> 100 µM	22.5 µM (inactive)	84.5 µM (inactive)	94.8 µM (inactive)	> 100 µM (inactive)	37.2 µM (inactive)	85.7 µM (inactive)	51.1 µM (inactive)	> 100 µM (inactive)	64 µM (inactive)	> 100 µM (inactive)	> 100 µM (inactive)	> 100 µM (inactive)	32.1 µM (inactive)	> 100 µM (inactive)	
CCOC(=O)c1ccc(/N=C2\Sc3nc4ccccc4n3\C2=N\c2ccc(C(=O)OCC)cc2)cc1	11.8 µM (inactive)	22.3 µM (inactive)	28.9 µM (inactive)	41.8 µM (inactive)	51.4 µM	> 100 µM (inactive)	14.2 µM (inactive)	16 µM (inactive)	22.5 µM (inactive)	59.2 µM (inactive)	22.6 µM (inactive)	24.7 µM (inactive)	22.3 µM (inactive)	39.2 µM (inactive)	39.3 µM (inactive)	12.1 µM (inactive)	17.3 µM (inactive)	31.5 µM (inactive)	21 µM (inactive)	
CCCCCCCCCC[C@H](O)[C@H](O)CC[C@@H](O)[C@H]1CC[C@@H]([C@H]2CC[C@H](CCCCCCC[C@@H](O)CC3=C[C@H](C)OC3=O)O2)O1	6.3 µM (inactive)	17.4 µM (inactive)	4.65 µM (inactive)	18.8 µM (inactive)	3.87 µM	1.9 µM (inactive)	1.33 µM (inactive)	3.34 µM (inactive)	2.31 µM (inactive)	1.31 µM (inactive)	0.00746 µM (active)	15.1 µM (inactive)	2.15 µM (inactive)	2.41 µM (inactive)	1.72 µM (inactive)	1.84 µM (inactive)	4.95 µM (inactive)	1.55 µM (inactive)	4.48 µM (inactive)	
Cc1ccc([N+](=O)[O-])cc1NC(=O)C(=O)C1CCC2=C(Sc3ccccc3N2)C1=O (stereo not drawn)	> 100 µM (inactive)	> 100 µM (inactive)	> 100 µM (inactive)	> 100 µM (inactive)	> 100 µM	> 100 µM (inactive)	> 100 µM (inactive)	> 100 µM (inactive)	> 100 µM (inactive)	> 100 µM (inactive)	> 100 µM (inactive)	> 100 µM (inactive)	> 100 µM (inactive)	> 100 µM (inactive)	> 100 µM (inactive)	> 100 µM (inactive)	> 100 µM (inactive)	> 100 µM (inactive)	37.5 µM (inactive)	
